Assay results: patent US11300570B2, “Therapeutic and diagnostic methods for cancer” (Genentech, Inc., priority 2016, dated 2022)

Experiments:
[1] = test system: locally advanced or metastatic NSCLC (PD-L1-unselected patients); assay: POPLAR Phase II randomized trial, atezolizumab vs docetaxel, in 2L+ PD-L1-unselected NSCLC, efficacy by tTMB; assay type: in vivo, human; conditions: POPLAR; for OS HR (95% CI) / PFS HR (95% CI): atezolizumab vs docetaxel
Source text: (§1) Patients were eligible for enrollment in the POPLAR study if they had locally advanced or metastatic (e.g., stage IIIB, stage IV, or recurrent) NSCLC; disease progression during or following treatment with a prior platinum-containing regimen for locally advanced, unresectable/inoperable, or metastatic NSCLC, or disease recurrence within 6 months of treatment with a platinum-based adjuvant/neoadjuvant regimen; measurable disease, as defined by RECIST v1.1; and an ECOG performance status of 0 or 1. Participants were randomized to receive either atezolizumab at a dose of 1200 mg intravenously every three weeks or docetaxel 75 mg per meter square (mg/m^2) intravenously every three weeks. Treatment with atezolizumab could be continued as long as participants were experiencing clinical benefit, i.e., in the absence of unacceptable toxicity or symptomatic deterioration attributed to disease progression. Pre-treatment tumor samples from patients in the Phase III OAK trial (Clinical Trial ID No.: NCT02008227) were also evaluated for tTMB. Patients were eligible for enrollment in the OAK study if they had locally advanced or metastatic (e.g., stage IIIB, stage IV, or recurrent) NSCLC; disease progression during or following treatment with a prior platinum-containing regimen for locally advanced, unresectable/inoperable, or metastatic NSCLC, or disease recurrence within 6 months of treatment with a platinum-based adjuvant/neoadjuvant regimen; measurable disease, as defined by RECIST v1.1; and an ECOG performance status of 0 or 1. Participants were randomized to receive either atezolizumab at a dose of 1200 mg intravenously every three weeks or docetaxel 75 mg per square meter (mg/m^2) intravenously every three weeks. Treatment with atezolizumab could be continued as long as participants were experiencing clinical benefit, i.e., in the absence of unacceptable toxicity or symptomatic deterioration attributed to disease progression.
Data from the single-arm, PD-L1-selected trials BIRCH and FIR were combined and analyzed to examine the association between tTMB and clinical outcomes among PD-L1-selected patients. Data from the randomized, PD-L1-unselected trial, POPLAR, were analyzed separately and treatment effects between the atezolizumab- and docetaxel-treatment arms were compared.
To identify somatic mutations, tumor samples (e.g., archival tumor samples) were processed as described in Frampton et al. Nat. Biotechnol. 31:1023-31, 2013. Sequencing libraries were constructed to sequence and analyze samples. In addition to standard mutation processing, a mutation load estimation algorithm was applied that, based on the number of somatic mutations and/or rearrangements detected in Table 1 or Table 2, respectively, extrapolates to the exome or the genome as a whole. For purposes of mutation load estimation, all coding short variant alterations, base substitutions, and indels detected in the genes listed in Table 1 and Table 2 were counted. Further, all coding alterations (base substitutions and indels), including synonymous alterations, with the exception of known oncogenic driver mutations, in the genes listed in Table 1 and Table 2 were counted. However, numerous classes of detected alterations were not counted: non-coding alterations; alterations with known (occurring as known somatic alterations in the COSMIC database (Forbes et al. (2014) Nucl. Acids Res. 43:D805-11) and likely (truncations in tumor suppressor genes) functional status; known germline alterations in the dbSNP database (Sherry et al. (2001) Nucleic Acids Res. 29(1):308-11); germline alterations occurring with two or more counts in the ExAC database (Exome Aggregation Consortium (ExAC), Cambridge, Mass.); alterations that are predicted to be germline in the specimen being assessed; and alterations that are predicted to be germline in a cohort of >60,000 clinical specimens. […]

[2] = test system: locally advanced or metastatic NSCLC; assay: OAK Phase III randomized trial, atezolizumab vs docetaxel, in 2L+ NSCLC, efficacy by tTMB; assay type: in vivo, human; conditions: for Median OS / Median PFS: 2L+ OAK
Source text: as §1
To identify somatic mutations, tumor samples (e.g., archival tumor samples) were processed as described in Frampton et al. Nat. Biotechnol. 31:1023-31, 2013. Sequencing libraries were constructed to sequence and analyze samples. In addition to standard mutation processing, a mutation load estimation algorithm was applied that, based on the number of somatic mutations and/or rearrangements detected in Table 1 or Table 2, respectively, extrapolates to the exome or the genome as a whole. For purposes of mutation load estimation, all coding short variant alterations, base substitutions, and indels detected in the genes listed in Table 1 and Table 2 were counted. Further, all coding alterations (base substitutions and indels), including synonymous alterations, with the exception of known oncogenic driver mutations, in the genes listed in Table 1 and Table 2 were counted. However, numerous classes of detected alterations were not counted: non-coding alterations; alterations with known (occurring as known somatic alterations in the COSMIC database (Forbes et al. (2014) Nucl. Acids Res. 43:D805-11) and likely (truncations in tumor suppressor genes) functional status; known germline alterations in the dbSNP database (Sherry et al. (2001) Nucleic Acids Res. 29(1):308-11); germline alterations occurring with two or more counts in the ExAC database (Exome Aggregation Consortium (ExAC), Cambridge, Mass.); alterations that are predicted to be germline in the specimen being assessed; and alterations that are predicted to be germline in a cohort of >60,000 clinical specimens. Finally, to calculate the mutation load per megabase, the total number of mutations counted was divided by the coding region target territory of the test, which was 1.110 megabases (Mb) for the current version of the test. The average median coverage value for all samples was 490.
The BEP was defined as patients with at least one tTMB measurement from a baseline tumor sample. […]

[3] = tTMB quantile ≥25%, unadjusted, unstratified
[4] = tTMB quantile ≥50% (median), unadjusted, unstratified
[5] = tTMB quantile ≥75%, unadjusted, unstratified
[6] = BEP (evaluable for TMB) (n = 174 atezolizumab, 186 docetaxel)
[7] = tTMB score <9 mut/Mb (n = 91 atezolizumab, 87 docetaxel)
[8] = tTMB score <16 mut/Mb (n = 135 atezolizumab, 136 docetaxel)
[9] = tTMB score ≥9 mut/Mb (n = 83 atezolizumab, 99 docetaxel)
[10] = tTMB score ≥16 mut/Mb (n = 39 atezolizumab, 50 docetaxel)

Question: Which “association of tTMB with efficacy of atezolizumab compared to docetaxel” value ([1]; PD-L1-unselected 2L+ patients with NSCLC) does the source give for atezolizumab here?
Answer: trend towards an association of tTMB with improved efficacy

Question: And the “clinical benefit in patients with low or no PD-L1 expression on TC and IC” value ([1]; long-term follow-up (FIG. 1))?
Answer: can also derive clinical benefit

Question: What about the “ORR (confirmed per RECIST v1.1) with increasing tTMB” value ([1]; per treatment arm) of the same substance?
Answer: higher ORR (confirmed per RECIST v1.1) was associated with increased tTMB

Question: What about the ORR ([1]; BEP (n = 54 atezolizumab vs 38 docetaxel)) of the same substance?
Answer: 13%

Question: What about the ORR ([1]; ITT (n = 144 atezolizumab vs 143 docetaxel)) of the same substance?
Answer: 15% vs 15%

Question: What about the “OS HR (95% CI)” value ([1]; BEP (n = 54 vs 38)) of the same substance?
Answer: 0.65 (0.38, 1.12)

Question: And the “PFS HR (95% CI)” value ([1]; BEP (n = 54 vs 38), unadjusted, unstratified)?
Answer: 0.98 (0.63, 1.53)

Question: What about the “OS HR (95% CI)” value ([1]; ITT (n = 144 vs 143)) of the same substance?
Answer: 0.69 (0.49, 0.98)

Question: And the “PFS HR (95% CI)” value ([1]; ITT (n = 144 vs 143), unadjusted, unstratified)?
Answer: 0.92 (0.71, 1.20)

Question: What about the “OS HR (95% CI)” value [1, 3] of the same substance?
Answer: 0.55 (0.29, 1.03)

Question: What about the “PFS HR (95% CI)” value [1, 3] of the same substance?
Answer: 0.88 (0.52, 1.48)

Question: What about the “OS HR (95% CI)” value [1, 4] of the same substance?
Answer: 0.48 (0.23, 1.04)

Question: And the “PFS HR (95% CI)” value [1, 4]?
Answer: 0.49 (0.25, 0.93)

Question: What about the “OS HR (95% CI)” value [1, 5] of the same substance?
Answer: 0.50 (0.15, 1.67)

Question: And the “PFS HR (95% CI)” value [1, 5]?
Answer: 0.49 (0.19, 1.30)

Question: What about the ORR ([1]; tTMB quantile ≥25%) of the same substance?
Answer: 14%

Question: And the ORR ([1]; tTMB quantile ≥50% (median))?
Answer: 20%

Question: And the ORR ([1]; tTMB quantile ≥75%)?
Answer: 20%

Question: What about the “Median OS” value [2, 6] of the same substance?
Answer: 13.3 months

Question: What about the “Median PFS” value [2, 6] of the same substance?
Answer: 2.0 months

Question: What about the “Median OS” value ([2]; ITT (n = 425 per arm)) of the same substance?
Answer: 13.8 months

Question: What about the “Median PFS” value ([2]; ITT (n = 425 per arm)) of the same substance?
Answer: 2.0 months

Question: What about the “Median OS” value [2, 7] of the same substance?
Answer: 14.2 months

Question: And the “Median PFS” value [2, 7]?
Answer: 1.8 months

Question: What about the “Median OS” value [2, 8] of the same substance?
Answer: 12.7 months

Question: What about the “Median PFS” value [2, 8] of the same substance?
Answer: 1.7 months

Question: What about the “Median OS” value [2, 9] of the same substance?
Answer: 13.3 months

Question: What about the “Median PFS” value [2, 9] of the same substance?
Answer: 2.5 months

Question: And the “Median OS” value [2, 10]?
Answer: 18.7 months

Question: And the “Median PFS” value [2, 10]?
Answer: 5.5 months

Question: And the “association of tissue TMB with efficacy” value ([2]; OAK study)?
Answer: associated with improved efficacy
